Laboratory results from PubChem BioAssay (NCI).
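Step 1: Grow cells in 96-well plates. Step 2: Expose to compound for 48 hours at 5 concentrations. Step 3: Interpolate endpoints linearly; if unreached, use highest concentration. The concentration for full growth arrest is given as TGI.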

Experiments:
Experiment in all cases: NCI-60 cell line screen, 48 h
HT29 colon = system: HT29 colon
OVCAR-8 ovarian = system: OVCAR-8 ovarian
MCF7 breast = system: MCF7 breast
CAKI-1 renal = system: CAKI-1 renal
ACHN renal = system: ACHN renal
SNB-19 CNS = system: SNB-19 CNS
IGROV1 ovarian = system: IGROV1 ovarian
M14 melanoma = system: M14 melanoma
MOLT-4 leukemia = system: MOLT-4 leukemia
EKVX NSCLC = system: EKVX NSCLC
SK-MEL-5 melanoma = system: SK-MEL-5 melanoma
T-47D breast = system: T-47D breast
MDA-MB-231 breast = system: MDA-MB-231 breast
HCT-15 colon = system: HCT-15 colon
MALME-3M melanoma = system: MALME-3M melanoma
SN12C renal = system: SN12C renal
SF-268 CNS = system: SF-268 CNS
HS 578T breast = system: HS 578T breast
CCRF-CEM leukemia = system: CCRF-CEM leukemia
RPMI-8226 leukemia = system: RPMI-8226 leukemia
UACC-62 melanoma = system: UACC-62 melanoma
NCI-H23 lung = system: NCI-H23 lung
KM12 colon = system: KM12 colon
A549 NSCLC = system: A549 NSCLC
RXF 393 renal = system: RXF 393 renal
SW-620 colon = system: SW-620 colon
DU-145 prostate = system: DU-145 prostate
SF-539 CNS = system: SF-539 CNS
NCI-H226 lung = system: NCI-H226 lung
PC-3 prostate = system: PC-3 prostate
SR leukemia = system: SR leukemia
OVCAR-4 ovarian = system: OVCAR-4 ovarian
HOP-62 NSCLC = system: HOP-62 NSCLC
SNB-75 CNS = system: SNB-75 CNS
786-0 renal = system: 786-0 renal
COLO 205 colon = system: COLO 205 colon
SF-295 CNS = system: SF-295 CNS
UACC-257 melanoma = system: UACC-257 melanoma
OVCAR-5 ovarian = system: OVCAR-5 ovarian
SK-MEL-2 melanoma = system: SK-MEL-2 melanoma
K-562 leukemia = system: K-562 leukemia
MDA-N = system: MDA-N
U251 CNS = system: U251 CNS
HCC-2998 colon = system: HCC-2998 colon
MDA-MB-435 = system: MDA-MB-435
OVCAR-3 ovarian = system: OVCAR-3 ovarian
SK-OV-3 ovarian = system: SK-OV-3 ovarian
NCI-H460 lung = system: NCI-H460 lung
BT-549 breast = system: BT-549 breast
A498 renal = system: A498 renal
HCT-116 colon = system: HCT-116 colon
NCI/ADR-RES ovarian = system: NCI/ADR-RES ovarian
UO-31 renal = system: UO-31 renal
TK-10 renal = system: TK-10 renal
HOP-92 NSCLC = system: HOP-92 NSCLC
LOX IMVI melanoma = system: LOX IMVI melanoma
SK-MEL-28 melanoma = system: SK-MEL-28 melanoma
NCI-H522 lung = system: NCI-H522 lung
HL-60(TB) leukemia = system: HL-60(TB) leukemia

For `COc1ccc(OC)c(-c2nc3ccccc3c(=O)[nH]2)c1`, the TGI (HT29 colon) was > 100 µM, the TGI (OVCAR-8 ovarian) was > 100 µM and the TGI (MCF7 breast) was > 100 µM. For the same compound, the TGI (CAKI-1 renal) was > 100 µM, the TGI (ACHN renal) was > 100 µM and the TGI (SNB-19 CNS) was > 100 µM. For the same compound, the TGI (IGROV1 ovarian) was > 100 µM, the TGI (M14 melanoma) was > 100 µM and the TGI (MOLT-4 leukemia) was > 100 µM. The TGI (EKVX NSCLC) was > 100 µM, the TGI (SK-MEL-5 melanoma) was > 100 µM and the TGI (T-47D breast) was > 100 µM. For the same compound, the TGI (MDA-MB-231 breast) was > 100 µM, the TGI (HCT-15 colon) was > 100 µM and the TGI (MALME-3M melanoma) was > 100 µM. For the same compound, the TGI (SN12C renal) was > 100 µM, the TGI (SF-268 CNS) was > 100 µM and the TGI (HS 578T breast) was > 100 µM. The TGI (CCRF-CEM leukemia) was > 100 µM, the TGI (RPMI-8226 leukemia) was > 100 µM and the TGI (UACC-62 melanoma) was > 100 µM. The TGI (NCI-H23 lung) was > 100 µM, the TGI (KM12 colon) was > 100 µM and the TGI (A549 NSCLC) was > 100 µM. The TGI (RXF 393 renal) was > 100 µM, the TGI (SW-620 colon) was > 100 µM and the TGI (DU-145 prostate) was > 100 µM. The TGI (SF-539 CNS) was > 100 µM, the TGI (NCI-H226 lung) was > 100 µM and the TGI (PC-3 prostate) was > 100 µM. For the same compound, the TGI (SR leukemia) was > 100 µM, the TGI (OVCAR-4 ovarian) was > 100 µM and the TGI (HOP-62 NSCLC) was > 100 µM. For the same compound, the TGI (SNB-75 CNS) was > 100 µM, the TGI (786-0 renal) was > 100 µM and the TGI (COLO 205 colon) was > 100 µM. The TGI (SF-295 CNS) was > 100 µM, the TGI (UACC-257 melanoma) was > 100 µM and the TGI (OVCAR-5 ovarian) was > 100 µM. The TGI (SK-MEL-2 melanoma) was > 100 µM, the TGI (K-562 leukemia) was > 100 µM and the TGI (MDA-N) was > 100 µM. For the same compound, the TGI (U251 CNS) was > 100 µM, the TGI (HCC-2998 colon) was > 100 µM and the TGI (MDA-MB-435) was > 100 µM. The TGI (OVCAR-3 ovarian) was > 100 µM, the TGI (SK-OV-3 ovarian) was > 100 µM and the TGI (NCI-H460 lung) was > 100 µM. For the same compound, the TGI (BT-549 breast) was > 100 µM, the TGI (A498 renal) was > 100 µM and the TGI (HCT-116 colon) was > 100 µM. The TGI (NCI/ADR-RES ovarian) was > 100 µM and the TGI (UO-31 renal) was > 100 µM.
In the case of `NC1CC(=O)c2csc(Cl)c21` (centres undefined), the TGI (HT29 colon) was 29.2 µM, the TGI (OVCAR-8 ovarian) was 23 µM and the TGI (MCF7 breast) was > 100 µM. It also gave a TGI (CAKI-1 renal) of 3.68 µM, a TGI (ACHN renal) of 10.3 µM and a TGI (SNB-19 CNS) of 33.2 µM. For the same compound, the TGI (IGROV1 ovarian) was 42.2 µM, the TGI (TK-10 renal) was 24.1 µM and the TGI (M14 melanoma) was 23.7 µM. The TGI (MOLT-4 leukemia) was 3.87 µM, the TGI (EKVX NSCLC) was 35.9 µM and the TGI (SK-MEL-5 melanoma) was 35.3 µM. The TGI (T-47D breast) was > 23.6 µM, the TGI (MDA-MB-231 breast) was 22.5 µM and the TGI (HCT-15 colon) was 14.2 µM. The TGI (MALME-3M melanoma) was 7.56 µM, the TGI (HOP-92 NSCLC) was 25.4 µM and the TGI (SN12C renal) was 14.2 µM. For the same compound, the TGI (SF-268 CNS) was 31.8 µM, the TGI (HS 578T breast) was > 100 µM and the TGI (CCRF-CEM leukemia) was 3.68 µM. The TGI (LOX IMVI melanoma) was 24.1 µM, the TGI (UACC-62 melanoma) was 24.7 µM and the TGI (NCI-H23 lung) was 54 µM. For the same compound, the TGI (KM12 colon) was 17.4 µM, the TGI (A549 NSCLC) was 36.7 µM and the TGI (RXF 393 renal) was 17.8 µM. For the same compound, the TGI (DU-145 prostate) was 20.9 µM, the TGI (SF-539 CNS) was 9.56 µM and the TGI (NCI-H226 lung) was 94.6 µM. It also gave a TGI (PC-3 prostate) of 23.9 µM, a TGI (OVCAR-4 ovarian) of 68.8 µM and a TGI (SK-MEL-28 melanoma) of 46.3 µM. For the same compound, the TGI (HOP-62 NSCLC) was 29.1 µM, the TGI (SNB-75 CNS) was 31.8 µM and the TGI (786-0 renal) was 2.96 µM. The TGI (COLO 205 colon) was 12.1 µM, the TGI (SF-295 CNS) was 32 µM and the TGI (NCI-H522 lung) was 3.32 µM. It also gave a TGI (UACC-257 melanoma) of 29 µM, a TGI (OVCAR-5 ovarian) of 37.1 µM and a TGI (SK-MEL-2 melanoma) of 30.7 µM. The TGI (K-562 leukemia) was > 100 µM, the TGI (MDA-N) was 22 µM and the TGI (U251 CNS) was 22.9 µM. For the same compound, the TGI (HCC-2998 colon) was 33.9 µM, the TGI (MDA-MB-435) was 27.3 µM and the TGI (OVCAR-3 ovarian) was 30.9 µM. For the same compound, the TGI (SK-OV-3 ovarian) was 31.1 µM, the TGI (NCI-H460 lung) was 49.5 µM and the TGI (BT-549 breast) was 33.4 µM. The TGI (A498 renal) was 33.5 µM, the TGI (HL-60(TB) leukemia) was 13.1 µM and the TGI (HCT-116 colon) was 14.1 µM. For the same compound, the TGI (NCI/ADR-RES ovarian) was > 86.7 µM and the TGI (UO-31 renal) was 12.7 µM.
